Results taken from ChEMBL document CHEMBL2321709, “Acetylcholinesterase immobilized capillary reactors-tandem mass spectrometry: an on-flow tool for ligand screening” (J Med Chem, 2013).

Experiments:
[1] = molecular target: Acetylcholinesterase (Electrophorus electricus) (UniProt O42275); assay: Inhibition of Electrophorus electricus AChE using acetylcholine as substrate by chromatography relative to control; details: concentration not given here
Acetylcholinesterase = Acetylcholinesterase (Electrophorus electricus, UniProt O42275); assay: Competitive inhibition of Electrophorus electricus AChE using acetylcholine as substrate by Lineweaver-Burk plot method
Acetylcholinesterase, sequence (O42275 whole entry): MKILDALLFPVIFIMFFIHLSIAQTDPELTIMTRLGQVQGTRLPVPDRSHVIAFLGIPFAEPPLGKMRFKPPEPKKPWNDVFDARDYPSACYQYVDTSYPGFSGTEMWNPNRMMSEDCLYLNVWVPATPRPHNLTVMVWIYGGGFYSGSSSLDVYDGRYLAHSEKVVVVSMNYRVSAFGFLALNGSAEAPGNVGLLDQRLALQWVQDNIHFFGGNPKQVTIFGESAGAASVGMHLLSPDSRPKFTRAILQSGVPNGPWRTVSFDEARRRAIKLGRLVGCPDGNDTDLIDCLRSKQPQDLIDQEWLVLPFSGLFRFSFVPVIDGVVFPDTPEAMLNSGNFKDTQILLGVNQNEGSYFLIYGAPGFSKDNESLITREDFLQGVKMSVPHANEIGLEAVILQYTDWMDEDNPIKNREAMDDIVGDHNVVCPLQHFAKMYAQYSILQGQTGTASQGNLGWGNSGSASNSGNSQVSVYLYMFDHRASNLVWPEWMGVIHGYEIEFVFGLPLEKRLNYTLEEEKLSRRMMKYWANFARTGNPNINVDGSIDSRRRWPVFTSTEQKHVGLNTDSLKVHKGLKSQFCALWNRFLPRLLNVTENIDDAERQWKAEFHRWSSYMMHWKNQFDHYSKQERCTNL

Acetylcholinesterase (Electrophorus electricus), sequence (O42275 24-633 limits assumed): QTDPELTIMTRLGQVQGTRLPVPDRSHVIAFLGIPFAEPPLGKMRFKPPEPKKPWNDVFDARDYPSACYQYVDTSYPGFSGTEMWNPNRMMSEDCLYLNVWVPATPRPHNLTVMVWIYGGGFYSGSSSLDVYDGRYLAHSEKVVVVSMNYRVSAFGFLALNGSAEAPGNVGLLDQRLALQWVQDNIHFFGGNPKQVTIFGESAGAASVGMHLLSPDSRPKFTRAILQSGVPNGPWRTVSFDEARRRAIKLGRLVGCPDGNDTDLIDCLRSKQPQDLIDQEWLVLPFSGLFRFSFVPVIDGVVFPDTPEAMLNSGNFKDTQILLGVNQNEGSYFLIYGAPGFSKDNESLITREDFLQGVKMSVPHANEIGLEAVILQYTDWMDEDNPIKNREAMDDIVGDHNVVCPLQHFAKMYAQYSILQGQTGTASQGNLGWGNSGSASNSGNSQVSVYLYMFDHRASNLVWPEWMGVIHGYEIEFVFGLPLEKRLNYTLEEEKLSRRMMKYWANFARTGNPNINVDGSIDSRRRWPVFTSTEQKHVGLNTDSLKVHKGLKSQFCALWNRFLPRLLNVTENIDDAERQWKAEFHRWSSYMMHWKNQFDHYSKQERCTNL

| SMILES | inhibition [1] [%] | IC50 (Acetylcholinesterase) [µM] | Ki (Acetylcholinesterase) [µM] |
| --- | --- | --- | --- |
| O=C(NCCN1CCCCC1)c1cc2ccccc2oc1=O | > 80 | 12.6 | 13.8 |
| CCOC(=O)c1cc2ccc(OCCN3CCCCC3)cc2oc1=O | > 80 | 0.356 | 0.031 |
